Melting point data for 64 compounds are collected here from a melting point compilation (Tetko et al.; mined from patent text by program, amines drawn as free bases though some values may be those of a salt).

Consider `OC1N=C(c2ccccc2Cl)c2cc(Cl)ccc2-c2ncncc21` (centres undefined), for which the melting point (in general, the temperature, or range, at which the solid turns liquid) lay within 105 to 117 °C. The compound `CNc1ncnc2ccc(I)cc12` gave a melting point of 245 °C. In the case of `CC(C)CCN1CCC2(CC1)CSC1=C(O2)c2ccccc2C(=O)C1=O` it was 143 to 146 °C; in that of `O=C(Nc1ccc(C(F)(F)F)cc1)C1=NN(c2cccc(Cl)c2)C(c2ccccc2)CC1` (centres undefined), 183 to 184 °C; in that of `CCCC(CCCCNC(=O)c1cc2ccc(C3OC(CO)C(O)C(O)C3O)cc2oc1=O)C(=O)O` (centres undefined), 162 °C. With `CN1CCN(C2=Nc3ccc(Cl)cc3Cn3cccc32)CC1` the figure was 186 to 188 °C; with `C=CCn1c2ccccc2c2c(N)c(C(=O)OC)c(C)nc21`, 78 to 85 °C; with `O=C1CC(c2ccccc2)Cc2c1ccn2C(=O)c1ccccc1` (centres undefined), 140 to 142 °C. In the case of `Fc1cc2c(Cl)ncnc2cn1` it was 75 to 76 °C; in that of `CC1(C)C(=O)NC(c2ccc(NC(=O)CCl)cc2)c2ccccc21` (centres undefined), 218 to 219 °C; in that of `COc1ccc(-c2nn(CCCCCCBr)c(=O)c3ccccc23)cc1OC`, 83 to 84 °C. Compound `CC(C)c1nc(C(C)C)c(C(O)c2ccccc2)c(-c2ccc(F)cc2)c1CO` (centres undefined) returned a melting point of 202 to 204 °C.

As to `CC1(C)Oc2ccc(C#N)cc2[C@@H](NC(=O)CCl)[C@@H]1O` (relative stereo), the melting point was in the range of 196 to 197 °C. With `CCOC(=O)c1cn(CC)c2nc(N3CCN(C(=O)OCC)CC3)c(F)cc2c1=O` the figure was 171 to 173 °C; with `COC(=O)C(C)Oc1ccc(N(C)c2nc3cc(Cl)ccc3s2)cc1` (centres undefined), 120 °C.

Take `COC(=O)C(=O)CC(=O)/C=C/c1ccc(Cl)cc1`: the melting point lay within 135 to 136 °C. Compound `CCOC(=O)C(=Cc1ccc(-c2ccc(Cl)cc2)o1)C(=O)OCC` gave a melting point of 78 to 80 °C. With `CN(C)C(=O)N(SC(N)=S)c1ccccc1` the figure was 185 to 188 °C; with `CCCCOC(=O)N[C@@H](CC(N)=O)C(=O)N[C@@H](Cc1ccccc1)[C@H](O)C(=O)N1CCC[C@H]1C(=O)NC(C)(C)C`, 61 to 65 °C. In the case of `CC(C)OC(=O)N1CCC(c2nc3cc(-c4ccc(C(N)=O)cc4F)ccc3o2)CC1` it was 194 to 197 °C. `CCCCN1C(=O)NC(CC(=O)O)C1=O` (centres undefined) yielded a melting point of 132 °C. With `CC(C)OC(=O)c1cc(-n2c(=O)[nH]c3c(c2=O)CCC3)c(F)cc1F` the figure was 231 to 234 °C; with `O=C1NC(=O)N(Cc2ccccc2)C(=O)C1Cc1ccccc1` (centres undefined), 107 to 109 °C. In the case of `CCC(=O)NC1(c2ccc(C(C)C)cc2OC(=O)CC)C(=O)c2ccccc2C1=O` it was 173 to 175 °C; in that of `O=C(CCC1C(=S)Nc2ccccc21)NCc1ccccc1` (centres undefined), 114 °C. In the case of `CCCOC(=O)C1=C(C)NC(CO)=C(C(=O)OC)C1c1ccccc1C#N` (centres undefined) it was 149 to 152 °C; in that of `CC(=O)NCCCCC1Cc2ccccc2C1`, 83 to 84 °C.

The compound `CCOC(=O)C(=O)Nc1cccc(-c2nnn[nH]2)c1` had a melting point of 192 to 193 °C. With `O=C(O)c1cc(S(=O)(=O)Oc2ccccc2-c2ccc(-c3c(Cc4ccccc4)oc4ccccc34)cc2)ccc1O` the figure was 171 to 173 °C. With `COc1ccc(C2(c3ccc(OC)cc3)C(c3ccccc3)C2(Cl)Cl)cc1` (centres undefined) the figure was 124 to 125 °C. In the case of `Cn1c([N+](=O)[O-])cnc1-c1nc(C=O)cs1` it was 180 to 182 °C. `O=C(O)CCc1conc1-c1ccc(Cl)c(Cl)c1`: the melting point lay in the range of 181 to 182 °C. With `O=C(Nc1cccc(-n2ccnc2)c1)c1csc(-c2ccccc2)n1` the figure was 131 to 134 °C. In the case of `NC1C(O)C(CO)OC1n1ccc(=O)[nH]c1=O` (centres undefined) it was 197 to 199 °C. In the case of `CCCCNC(=O)Oc1cccc(NC(=O)C=C(C)OCC)c1` it was 164 °C; in that of `O=C1c2cccc3c(N4CCCC4)c([N+](=O)[O-])cc(c23)C(=O)N1O`, 249 to 252 °C. The compound `C#Cc1ccc2c(c1)Cc1cc(C#C)ccc1-2` yielded a melting point of 125 °C. The compound `O=c1cc2c(nn1-c1ccc(Cl)cc1)-c1ncccc1CC2` displayed a melting point of 174 to 176 °C.

`O=C(O)CC(O)c1ccc(-c2ccccc2Cl)o1` (centres undefined) yielded a melting point of 53 to 55 °C.

Compound `O=C1OC(Cl)(c2ccc(Cl)cc2Cl)c2ccccc21` (centres undefined) yielded a melting point of 148 to 149 °C. In the case of `O=C1Cn2cccc2Sc2ccc(Cl)cc21` it was 106 to 107 °C. In turn, `Nc1cc(-n2cccn2)nc(-c2ccc(Br)o2)n1` had a melting point of 221 to 222 °C.

For the compound `Cc1cc(C(C)(C)C)c(O)c(C)c1CC(=O)O`, the melting point was in the range of 161 to 165 °C. In the case of `CC(=O)N1N=C(c2ccc([N+](=O)[O-])cc2)c2cc3c(cc2C=C1C)OCO3` it was 205 to 207 °C; in that of `Cn1cc(-c2cccc(C(=O)O)c2)c(=O)c(-n2cccn2)c1`, 280 °C; in that of `Cc1oc(Cc2cccc(Br)c2)c(C(=O)c2cc(C(C)C)c(OS(=O)(=O)c3ccc(C(=O)O)c(O)c3)c(C(C)C)c2)c1C`, 148 °C. `COc1ccc(-c2cc3ccccc3[nH]2)cc1NC(=S)NCCNC(=O)OC(C)(C)C` yielded a melting point of 159 to 160 °C. In the case of `COc1cccc(/C=C/c2nc3c([nH]2)c(=O)n(C)c(=O)n3C)c1OC` it was 289 to 290 °C. In the case of `OC1CSC(Oc2cncc(-c3ccncc3Cl)c2)C(O)C1O` (centres undefined) it was 208 °C; in that of `O=c1[nH]nnc2sccc12`, 175 to 176 °C.

Take `CCn1cc(C(=O)O)c(=O)c2cnc(N3CCN(C)CC3)nc21`: the melting point lay within 232 to 233 °C. With `CCc1ccc(N/C=C/[N+](=O)[O-])c(C(=O)O)c1` the figure was 190 to 191 °C; with `OCCCc1ccc(Sc2ccc(CCCO)cc2C(F)(F)F)c(C(F)(F)F)c1`, 96 to 102 °C. With `COC(=O)C(C(=O)O)=C1SC=CS1` the figure was 48 to 51 °C; with `COc1cc(OC)c(-c2nc3ncccc3[nH]2)s1`, 93 to 96 °C; with `CCCCCCCCCCCCCCCCNC(=O)c1cc(OCCBr)c2ccccc2c1O`, 91 to 93 °C. With `O=C(C=Cc1ccc(F)c(F)c1)c1ccccc1O`, the melting point was 131 to 133 °C. With `O=c1c2c(Cc3ccccc3Cl)n[nH]c2c2cccnc2n1-c1cccc(OC(F)(F)F)c1`, the melting point fell in the range of 273 to 275 °C. Regarding `COc1ccc(CNc2cc(Cn3c(C(=O)c4cc(C)cc(C#N)c4)c(C(C)C)c(=O)[nH]c3=O)c(F)c(F)n2)cc1`, the melting point lay in the range of 133 to 134 °C. With `Cc1ccc2c(c1)c(=O)oc(=O)n2Cc1ccccc1` the figure was 150 °C. With `COc1c(C)c(C)c2c(c1C)C(c1ccc(CCCCCCC(=O)O)cc1)C(C)(C)O2` (centres undefined) the figure was 88 to 89 °C; with `O=C(Nc1ccccn1)c1nc(-c2ccccc2)c2ccccc2c1O`, 228 to 230 °C. Compound `CC(=O)OC1=C([C@H]2CC[C@H](c3ccc(Cl)cc3)CC2)C(=O)c2ccccc2C1=O` displayed a melting point of 149 to 152 °C. In the case of `CC1=C(c2ccccc2)C(c2ccccc2OCc2ccccc2)C([N+](=O)[O-])=C(C)N1` (centres undefined) it was 189 °C.
